What all share (format): functional, cell-based
Conditions in all cases: NIH3T3

Experiment [1] has as its target D(2) dopamine receptor (Homo sapiens) (UniProt P14416). In words: Activity at human dopamine D2 receptor in NIH/3T3 cells assessed as enhancement of NPA-stimulated beta-galactosidase activity at 10 nM after 5 days by R-SAT assay.
Experiment [2] has the same target. In words: Activity at human dopamine D2 receptor in NIH/3T3 cells assessed as enhancement of NPA-stimulated beta-galactosidase activity at 50 nM after 5 days by R-SAT assay.
Experiment [3] shares this target. The experiment in a line: Activity at human dopamine D2 receptor in NIH/3T3 cells assessed as enhancement of NPA-stimulated beta-galactosidase activity at 100 nM after 5 days by R-SAT assay.

Where a SMILES comes first, the peptide text is derived from it.

Chain of D(2) dopamine receptor (Homo sapiens) (P14416 whole entry): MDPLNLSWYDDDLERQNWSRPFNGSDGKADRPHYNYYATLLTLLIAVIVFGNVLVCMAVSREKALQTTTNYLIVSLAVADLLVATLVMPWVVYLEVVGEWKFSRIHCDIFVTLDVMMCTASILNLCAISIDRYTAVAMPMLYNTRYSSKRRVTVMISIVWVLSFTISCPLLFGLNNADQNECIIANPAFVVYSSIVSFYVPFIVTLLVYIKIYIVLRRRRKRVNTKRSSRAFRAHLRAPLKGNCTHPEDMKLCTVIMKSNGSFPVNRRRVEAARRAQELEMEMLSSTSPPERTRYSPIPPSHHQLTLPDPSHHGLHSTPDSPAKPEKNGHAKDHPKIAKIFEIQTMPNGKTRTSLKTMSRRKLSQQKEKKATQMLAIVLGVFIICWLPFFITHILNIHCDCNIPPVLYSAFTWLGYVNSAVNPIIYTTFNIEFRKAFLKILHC

`CC(C)C[C@H](NC(=O)[C@@H]1CCCN1)C(=O)NCC(N)=O` (H-Pro-Leu-Gly-NH2): the Activity in experiment [1] worked out at 115%; in experiment [2], 104%; in experiment [3] it was 98%.

As to `CC(C)Cc1c(C(=O)[C@@H]2CCCN2)ccnc1OCC(N)=O`, the figures for the Activity in experiment [1], in experiment [2] and in experiment [3] were 146%, 135% and 117%, respectively.

The values above are taken from ChEMBL document CHEMBL1149283, “Design, synthesis and evaluation of a PLG tripeptidomimetic based on a pyridine scaffold” (J Med Chem, 2004).
